Patent US7829114B2, “Capsules containing aqueous fill compositions stabilized with derivatized cyclodextrin” (CyDex Pharmaceuticals, Inc., priority 2002, dated 2010)

What was measured:
Assay type in all cases: physicochemical
[1] = Shell stability toward aqueous fill composition, statements on soft gelatin capsules; conditions: for stability provided to capsules: about ≧50% wt.
[2] = H.S.I.T. rating versus SBE concentration (FIG. 3)
Description: FIG. 3 depicts a chart of the relationship between concentration of SBE cyclodextrin and H.S.I.T. (HALF-SHELL integrity test) rating for HGC (hard gelatin capsule From […]), HGS (hard gelatin capsule from SHIONOGI), HPC (hard hydroxypropyl methylcellulose shell from […]), and HPS (hard hydroxypropyl methylcellulose shell from SHIONOGI), and SSS (soft starch shell […]). The stability obtained was dependent upon the composition of the capsule gel.

[3] = Water activity measurement; conditions: about 20-25° C.
Description: Without being held bound to a particular mechanism, it is believed that the increasing the concentration of derivatized cyclodextrin present in the aqueous fill composition results in reduced water activity for the fill composition. The table below provides a summary of water activity versus concentration of cyclodextrin derivatives or some shell-stabilizing materials in water at about 20-25° C., or ambient temperature.
The values detailed above are approximate and can vary from instrument to instrument. These values were determined according to the procedure described herein on a water activity meter described herein. The numbers can also vary within the standard deviation of a particular instrument. It is also possible for the numbers to vary according to the accuracy and reproducibility of the instrument used as well as the method for calibrating the instrument with solution standards of known water activity.
Water activity was measured by placing a sample solution in a small, sealed container and determining the equilibrium humidity and temperature in the container. Instruments such as the HygroLab 3 from Rotronic Instrument Corp. , Huntington, N.Y. were used to measure the water activity. The humidity is determined using a thin film capacitive sensor in the headspace of the container. The temperature is determined using a Pt RTD 100 sensor. From these measurements the activity of water (Aw) is calculated by the instrument. The instrument has an accuracy of about ±0.015 Aw and a repeatability of about ±0.005 Aw. Carefully prepared salt-containing stock solutions of known concentration and water activity were used to calibrate the instrument prior to use.

stability provided to capsules ([1]; LFB and LFC soft gelatin capsules as printed, FIG. 2): at least a one week stability | stability provided to capsules ([1]; LFB and LFC soft gelatin capsules, FIG. 1): at least a one week stability | water activity of fill composition that forms a stable soft gelatin capsule formulation ([1]; fill composition comprising SBE-CD, PEG and water, FIG. 8): ≤ 0.90±0.02 | water activity of fill composition that provides an increase in the stability of the shell ([1]; soft-gelatin capsule, the agent alone in water): less than 0.95 | stability provided to capsules ([2]; SBE concentration of about ≧60% wt., hard gelatin capsules): at least a one-week stability | stability provided to capsules ([2]; hard hydroxypropyl methylcellulose capsules): at least a two-week stability | Water Activity (approximate values) ([3]; 10 % w/w in water): ~0.98 | Water Activity (approximate values) ([3]; 20 % w/w in water): ~0.98 | Water Activity (approximate values) ([3]; 30 % w/w in water): ~0.97 | Water Activity (approximate values) ([3]; 40 % w/w in water): ~0.95 | Water Activity (approximate values) ([3]; 50 % w/w in water): ~0.91 | Water Activity (approximate values) ([3]; 55 % w/w in water): ~0.88 | Water Activity (approximate values) ([3]; 60 % w/w in water): ~0.86 | Water Activity (approximate values) ([3]; 70 % w/w in water): ~0.76
Substance: sulfobutyl ether cyclodextrin [SAE-CD]
shelf-life of soft gelatin capsules ([1]; 50% wt. or more based upon total weight of water and SAE-CD or of the fill composition): at least one week | stability of shell toward fill composition ([1]; soft gelatin shells from BANNER PHARMACAPS, less than 40% by wt. SAE-CD): unstable | stability of shell toward fill composition ([1]; soft gelatin shells from BANNER PHARMACAPS, ≧50% wt. SAE-CD): stable for at least one week | stability of shell toward fill composition ([1]; soft gelatin shells from BANNER PHARMACAPS, ≧55% wt. SAE-CD): stable for at least ten days | stability of shell toward fill composition ([1]; soft gelatin shells from BANNER PHARMACAPS, ≧60% wt. SAE-CD): stable for at least three weeks | stability of shell toward fill composition ([1]; soft gelatin shells from CARDINAL HEALTH, less than 40% by wt. SAE-CD): unstable | stability of shell toward fill composition ([1]; soft gelatin shells from CARDINAL HEALTH, ≧50% wt. SAE-CD): stable for at least one week | stability of shell toward fill composition ([1]; soft gelatin shells from CARDINAL HEALTH, ≧55% wt. SAE-CD): stable for at least two weeks | time the capsules were stable ([1]; soft gelatin shells from CARDINAL HEALTH, ≧60% wt. SAE-CD): at least 21 days
